In ChEMBL document CHEMBL1129010, “The preparation and evaluation of (+/-)-trans-1-Diazo-8-methoxy-4a-methyl-1,2,3,4,4a,9,10,10a-octahydro-phenanthren-2-one as an inhibitor of human type-1 steroid 5-reductase” (Bioorg Med Chem Lett, 1996) one finds Ki data, which are given here for five compounds.

The target of assay [1] is T1, 3-oxo-5-alpha-steroid 4-dehydrogenase 1 (Homo sapiens, UniProt P18405).
T1 sequence (P18405 whole entry): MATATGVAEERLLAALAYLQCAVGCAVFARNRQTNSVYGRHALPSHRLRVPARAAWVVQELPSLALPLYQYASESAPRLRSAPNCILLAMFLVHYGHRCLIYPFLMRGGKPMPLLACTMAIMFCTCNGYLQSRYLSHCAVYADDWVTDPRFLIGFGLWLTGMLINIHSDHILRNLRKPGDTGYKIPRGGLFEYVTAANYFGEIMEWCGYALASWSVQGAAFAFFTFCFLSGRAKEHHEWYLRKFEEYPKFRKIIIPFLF
The experiment in a line: Apparent inhibitory activity against human Steroid 5-alpha-reductase type I expressed in CHO cells. The format is cell-based. Particulars: read-out: Ki app; call rule not given here.

In assay [2] the target is T2, 3-oxo-5-alpha-steroid 4-dehydrogenase 2 (Homo sapiens, UniProt P31213).
T2 sequence (P31213 whole entry): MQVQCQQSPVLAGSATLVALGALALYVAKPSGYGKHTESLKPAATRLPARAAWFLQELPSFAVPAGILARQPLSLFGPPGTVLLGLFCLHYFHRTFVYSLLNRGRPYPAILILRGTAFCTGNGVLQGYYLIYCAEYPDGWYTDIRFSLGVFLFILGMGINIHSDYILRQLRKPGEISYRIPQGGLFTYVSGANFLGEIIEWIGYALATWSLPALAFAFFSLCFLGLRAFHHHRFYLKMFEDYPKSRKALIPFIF
The experiment in a line: Apparent inhibitory activity against human Steroid 5-alpha-reductase type 2 expressed in CHO cells. It counts as cell-based. Particulars: read-out: Ki app.

Assay [3] has as its target T1, 3-oxo-5-alpha-steroid 4-dehydrogenase 1. The experiment in a line: Apparent inhibitory activity against human Steroid 5-alpha-reductase type I expressed in CHO cells; Active. The format is cell-based.
In assay [4] the target is T3, 3-oxo-5-alpha-steroid 4-dehydrogenase 1 (Rattus norvegicus, UniProt P24008).
T3 sequence (P24008 whole entry): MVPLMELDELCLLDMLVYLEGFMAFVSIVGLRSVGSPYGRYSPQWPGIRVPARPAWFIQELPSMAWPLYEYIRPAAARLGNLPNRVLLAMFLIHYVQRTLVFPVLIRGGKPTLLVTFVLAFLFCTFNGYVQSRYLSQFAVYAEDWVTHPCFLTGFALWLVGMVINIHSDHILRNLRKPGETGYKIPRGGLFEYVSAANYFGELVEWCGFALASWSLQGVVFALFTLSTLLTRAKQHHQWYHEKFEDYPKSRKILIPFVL
The experiment in a line: Apparent inhibitory activity against rat prostatic Steroid 5-alpha-reductase type I.

For assay [5], the target named is T1, 3-oxo-5-alpha-steroid 4-dehydrogenase 1. The experiment in a line: Selective apparent inhibitory activity against human Steroid 5-alpha-reductase type I expressed in CHO cells; Active. It counts as cell-based.

`COc1cccc2c1CC[C@H]1[C-]([N+]#N)C(=O)CC[C@]21C`: the Ki stood at 120 nM in assay [1] and 2000 nM in assay [2]. `CN1C(=O)CC[C@]2(C)c3ccc(Cl)cc3CC[C@@H]12`: in assay [3], the Ki result is “Active”.

Consider `CC(CO)[C@H]1CC[C@H]2[C@@H]3CC[C@H]4C(=[N+]=[N-])C(=O)CC[C@]4(C)[C@H]3CC[C@]12C` (stereo partly specified), for which, in assay [4], the Ki is 35 nM. Consider `C[C@]12CCC(C(=O)O)=CC1=CCc1cc(Cl)ccc12` (racemic), for which the Ki entry in assay [5] is reported as “Active”. For `CN1C(=O)CC[C@@H]2c3ccc(Cl)cc3CC[C@H]21` [BEXLOSTERIDE], the Ki result in assay [3] is listed as “Active”.
